Patent publication US20170191038A1, “TGFß SIGNALING INDEPENDENT NAÏVE INDUCED PLURIPOTENT STEM CELLS, METHODS OF MAKING AND USE” (HONG GUAN Ltd., priority 2014, published 2017)
Structures can show the parent of a compound that is named as a salt.

What was measured:
Format in all cases: cell-based, rhesus monkey (Macaca mulatta)
[1] = test system: Rhesus monkey primed iPSCs; assay: Conversion of rhesus monkey primed iPSCs to naive iPSCs (conversion condition optimization, TRA-1-81/TBX3 double-positive dome-shaped colonies); settings: for effect on pluripotency / dome-shaped colony formation during naive conversion: primed iPSCs under 2i/LIF-based conditions, Y27632 10 μM, GÖ6983 5 μM
Description: Rhesus monkey primed iPSCs were dissociated into single cells by accutase and reseeded on feeder cells. The converting medium with 4 ng/ml bFGF (R&D Systems), 10 ng/ml human LIF (Millipore), CHIR99021 (3 μM; Stemgent) and PD0325901 (0.5 μM; Stemgent) was changed daily. At approximately day 7 to day 10, dome-shaped colonies were selected and transferred onto fresh feeder cells. Traditional 2i/LIF conditions—10 ng/ml human LIF (Millipore), CHIR99021 (3 μM; Stemgent) and PD0325901 (0.5 μM; Stemgent) were also tested and served as negative control. • (c) Conversion Condition Optimization for Rhesus Monkey Naïve iPSCs
Rhesus monkey primed iPSCs were dissociated into single cells by accutase and reseeded on feeder cells. The basal culture medium with 4 ng/ml bFGF (R&D Systems), 10 ng/ml human LIF (Millipore), CHIR99021 (3 μM; Stemgent) and PD0325901 (0.5 μM; Stemgent) was changed daily. The small molecules tested for culture condition optimization were SB203580 (10 μM; Tocris), SP600125 (10 μM; Tocris), Y27632 (10 μM; Tocris) and GÖ6983 (5 μM; Tocris). After treatment for 8 days, cells were fixed and immunostained for TRA-1-81.
(§1) To detect ALP activity the cells were washed with phosphate-buffered saline three times and stained with BCIP/NBT (Promega) for 15 min. For immunofluorescence, the primary antibodies included those against SSEA-1 (1:50, Chemicon), SSEA-4 (1:20, Santa Cruz Biotechnology), TRA-1-60 (1:50, Santa Cruz Biotechnology), TRA-1-81 (1:50, Santa Cruz Biotechnology), NANOG (1:100, R&D Systems), TBX3 (1:200, Abcam), H3K27me3 (1:200, Millipore), GATA4 (1:200, Santa Cruz Biotechnology), OCT4 (1:200, Abcam) and SOX2 (1:200, Santa Cruz Biotechnology). The secondary antibodies were rhodamine-labeled donkey anti-mouse IgG (1:100, Santa Cruz Biotechnology), rhodamine-labeled donkey anti-rabbit IgG (1:100, Santa Cruz Biotechnology), rhodamine-labeled goat anti-mouse IgM (1:100, Santa Cruz Biotechnology) and rhodamine-labeled donkey anti-goat IgG (1:100, Santa Cruz Biotechnology). DAPI (Roche Applied Science) was used for nuclear staining.

[2] = test system: Rhesus monkey primed iPSCs; assay: Signaling analysis of rhesus monkey primed iPSCs (TRA-1-81-positive colonies); settings: hESCs medium; 5 days; Stattic 1 μM, SB431542 10 μM, SU5402 2 μM, TGF-β1 2 ng/ml
Description: (§2) Rhesus monkey primed iPSCs were maintained as described (Liu H et al., 2008). […] The tested signaling modulators were SU5402 (2 μM; Tocris), SB431542 (10 μM; Tocris), Stattic (1 μM; Tocris) and TGF-β1 (2 ng/ml, Peprotech). After treatment for 5 days, cells were fixed and immunostained for TRA-1-81.
as §1

[3] = test system: Rhesus monkey naïve iPSCs; assay: Signaling analysis of rhesus monkey naïve iPSCs (TRA-1-81-positive dome-shaped colonies); settings: optimized conversion conditions; 5 days; Stattic 1 μM, SB431542 10 μM, SU5402 2 μM, TGF-β1 2 ng/ml
Description: as §2, §1

Compound | effect on pluripotency / dome-shaped colony formation during naive conversion [1] | self-renewal / pluripotency maintenance of primed iPSCs (TRA-1-81-positive colonies, words) [2] | self-renewal / pluripotency maintenance of naive iPSCs (TRA-1-81-positive dome-shaped colonies, words) [3] | conversion efficiency (TRA-1-81/TBX3 double-positive and dome-shaped colonies of total colonies) ([1]; bFGF (4 ng/ml) added to 2i/LIF conditions, primed iPSCs)
COc1ccc2c(c1)c(C1=C(c3c[nH]c4ccccc34)C(=O)NC1=O)cn2CCCN(C)C [GO{umlaut over ( )} 6983, 3-[1-[3-(Dimethylamino)propyl]-5-methoxy-1H-indol-3-yl]-4-(1H-indol-3-yl)-1H-pyrrole-2,5-dione] | induced pronounced differentiation and reduced TRA-1-81 expression in the colonies |  |  | 
O=[N+]([O-])c1ccc2c(c1)S(=O)(=O)C=C2 [JAK/STAT3 inhibitor] |  | maintained their pluripotent properties | readily differentiated with greatly reduced expression of TRA-1-81 | 
O=C(NOC[C@H](O)CO)c1ccc(F)c(F)c1Nc1ccc(I)cc1F [PD0325901, N-[(2R)-2,3-Dihydroxypropoxy]-3,4-difluoro-2-[(2-fluoro-4-iodophenyl)amino]-benzamide] | essential for conversion and maintenance of TBX3/TRA-1-81 double-positive dome-shaped colonies |  |  | 
NC(=O)c1ccc(-c2nc(-c3ccccn3)c(-c3ccc4c(c3)OCO4)[nH]2)cc1 [SB431542] |  | devastating to primed iPSCs self-renewal | no effect on rhesus monkey naive iPSCs | 
Cc1c[nH]c(/C=C2\C(=O)Nc3ccccc32)c1CCC(=O)O [SU5402] |  | few TRA-1-81-positive colonies formed | few TRA-1-81-positive colonies formed | 
C[C@@H](N)[C@H]1CC[C@H](C(=O)Nc2ccncc2)CC1 [Y27632, (+)-(R)-trans-4-(1-aminoethyl)-N-(4-pyridyl)cyclohexanecarboxamide+++dihydrochloride] | induced pronounced differentiation and reduced TRA-1-81 expression in the colonies |  |  | 
TGF-β: transforming growth factor-β1 (2 ng/ml, Peprotech) |  |  | devastating to the self-renewal of naïve iPSCs | 
bFGF: recombinant basic fibroblast growth factor, protein factor | Dome-shaped colonies morphologically similar to mouse ESCs appeared |  |  | 8%-10%
